Experimental findings from patent publication US9340506B2, “Acetamide derivatives as glucokinase activators, their process and medicinal applications” (ADVINUS THERAPEUTICS LIMITED, priority 2007, dated 2016) are described below.

Test [1] relates to primary rat hepatocytes. As to the kind of experiment: Glycogen synthesis in primary rat hepatocytes. The note with it: Hepatocyte, 10 μM concentration, primary hepatocytes from male Wistar rats, D-[U14C]-glucose, 3 hours, read-out: Glycogen synthesis, fold increase over DMSO control. The format is cell-based. How it is done:
The glycogen deposition assay was carried out with few modifications in the original protocol as described in “Biochem J. 1990 Feb. 15; 266(1): 91-102”. In brief, primary hepatocytes were collected from male Wistar rats, and were seeded in a 48-well plate at a density of 150,000 cells/well in Minimal Essential Medium (MEM) containing 10% foetal calf serum (FCS) 100 nM insulin and 10 nM dexamethasone. followed by incubation for 4 hours at 37° C. The medium was replaced with fresh MEM containing 10% FCS and 10 nM dexamethasone and the cells were further incubated for 16 hours at 37° C. Following day, the medium was replaced with fresh MEM (serum-free) containing 2 μCi/ml of D-[U^14C]-glucose in the presence of the test compound. Hepatocytes were incubated for 3 hours at 37° C. followed by washing with 150 mM NaCl. Cells were lysed with 0.1 N NaOH, and the lysate was precipitated with 80% w/v trichloroacetic acid (TCA). Cell debris was pelleted by centrifugation, the supernatant was removed, and the glycogen was precipitated with 66% ethanol followed by drying overnight. Samples were dissolved in MiliQ water and transferred to 96 well reading plate, 100 μL scintillant was added per well and the plate was read in scintillation counter (MicroBeta Trilux, Perkin Elmer). Data was expressed as fold increase in glycogen synthesis over DMSO control (untreated hepatocytes).

For test [2], the target named is purified human recombinant GK (Homo sapiens (Human), UniProt P35557). As to the kind of experiment: Glucokinase activity assay (coupled enzymatic, G6PD/NADH absorbance at 340 nm). The format is biochemical. The note with it: for EC50: EC50 of % change in S0.5 of glucokinase for glucose, sigmoidal fit, read-out: EC50 (with respect to % ΔS0.5); for Emax: Emax of % change in S0.5 of glucokinase for glucose, vehicle S0.5 = 0%, 0 mM glucose = 100%, read-out: % Emax (with respect to % ΔS0.5). The text has this: The glucokinase (GK) assay is a coupled enzymatic assay. GK catalyzes the first step of glycolysis, the conversion of glucose to glucose-6-phosphate (G6P) in the presence of ATP. G6P in turn is converted by glucose-6-phosphate dehydrogenase (G6PD) to 6-phosphogluconate, a process that requires NAD, resulting in NADH formation. Since the GK-catalyzed step is the rate-limiting step of this coupled enzymatic process, the rate of accumulation of 6-phosphogluconate and NADH is directly proportional to the rate of glucose phosphorylation by GK. The rate of the GK-catalyzed reaction can therefore be measured by monitoring the increase in NADH absorbance at 340 nm.
Sequence of purified human recombinant GK (P35557 whole entry): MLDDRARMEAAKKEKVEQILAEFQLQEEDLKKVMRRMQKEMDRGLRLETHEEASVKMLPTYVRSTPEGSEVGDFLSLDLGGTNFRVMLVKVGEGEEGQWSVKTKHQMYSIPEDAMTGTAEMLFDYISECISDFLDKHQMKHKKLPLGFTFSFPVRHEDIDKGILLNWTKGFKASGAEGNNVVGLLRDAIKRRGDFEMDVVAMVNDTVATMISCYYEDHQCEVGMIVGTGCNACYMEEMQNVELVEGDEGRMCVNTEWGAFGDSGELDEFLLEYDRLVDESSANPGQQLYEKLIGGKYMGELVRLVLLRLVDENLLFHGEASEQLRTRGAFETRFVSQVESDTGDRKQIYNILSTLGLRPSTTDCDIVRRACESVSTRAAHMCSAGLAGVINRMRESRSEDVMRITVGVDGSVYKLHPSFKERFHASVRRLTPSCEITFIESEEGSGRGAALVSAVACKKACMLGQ
The assay is carried out according to the protocol outlined in Hariharan et al (1997), Diabetes 46: 11-16. Briefly, the test compounds are incubated in a reaction mix containing 25 mM HEPES (pH 7.2), 10 mM MgCl2, 100 mM KCl, 5 mM ATP, 2 mM DTT, 0.5 mM NAD, 1 U/mL Leuconostoc mesenteroides G6PD, 0.3 U/mL of purified human recombinant GK, and different concentrations of glucose. Enzymatic activity is calculated from the initial reaction velocity, measured from the change in NADH absorbance as a function of time.
Compounds described in formula (I), in concentration ranges from 1.0 nM to 500 μM, are tested in the purified human recombinant glucokinase assay described above.
A compound is considered to be a glucokinase activator if it, in its testable range of concentrations, yields a higher rate of glucose phosphorylation than in its absence at a particular glucose concentration, for example at 5 mM glucose.
Compounds of general formula (I) are tested in the in vitro GK enzymatic assay to monitor dose-dependent effect on glucokinase activation (in kinetic mode), as described above, at various glucose concentrations. The S0.5 of glucokinase for glucose at different concentration of each compound of interest is calculated from the following modified version of the Michaelis-Menten equation, V=Vmax [S]^n/(S0.5^n+[S]^n), where [S] is the glucose concentration and n is the Hill coefficient (taken as 1.7 to account for the sigoidal kinetics of glucokinase with respect to glucose). The S0.5 is plotted against the log of the compound concentration. The change in the S0.5 of glucokinase (ΔS0.5) for glucose is calculated by subtracting the S0.5 at each concentration of the compound from the S0.5 in the vehicle control. The ΔS0.5 is then normalized to a percent scale, where the S0.5 in the vehicle control is set to 0% and 0 mM glucose is set to 100%. The % ΔS0.5 is then plotted against the log of the compound concentration. The EC50 and Emax of % change in S0.5 is obtained from the sigoidal fit of the data. Detailed protocol has been described in our copending application no. 409/CHE/2007 which is incorporated herein by reference. Characterization data of some representative glucokinase activators of the present disclosure, which are illustrative but not limiting, are given in table I below.

Structures are written as SMILES.

For orientation: EC50 means the concentration needed to bring the measured effect to its halfway point. One may read the Emax as the size of the effect at its maximum, as opposed to the concentration needed. Consider `Cc1cc(Oc2cnc(NC(=O)C(OC3CCOCC3)c3ccc(S(=O)(=O)C4CC4)cc3)s2)ccc1C(=O)O` (single isomer, unassigned; (+)) [Example G1A, (+)4-[2-[[2-(4-cyclopropylsulfonylphenyl)-2-tetrahydropyran-4-yloxy-acetyl]amino]thiazol-5-yl]oxy-2-methyl-benzoic acid], for which the fold induction at 10 µM in test [1] was over 2.5. In test [2], the EC50 was 87 nM and the Emax was 97%.
Consider `O=C(O)c1cccc(Oc2cnc(NC(=O)C(OC3CCOCC3)c3ccc(S(=O)(=O)C4CC4)cc3)s2)c1` (single isomer, unassigned; (+)) [Example G8A, (+)3-[2-[[2-(4-cyclopropylsulfonylphenyl)-2-tetrahydropyran-4-yloxy-acetyl]amino]thiazol-5-yl]oxybenzoic acid], for which the fold induction at 10 µM in test [1] was over 2.5. In test [2], the EC50 was found to be 190 nM.
On to `COc1cc(Oc2cnc(NC(=O)C(OC3CCOCC3)c3ccc(S(=O)(=O)C4CC4)cc3)s2)ccc1C(=O)O` (single isomer, unassigned; (+)) [Example G9A, (+)4-[2-[[2-(4-cyclopropylsulfonylphenyl)-2-tetrahydropyran-4-yloxy-acetyl]amino]thiazol-5-yl]oxy-2-methoxy-benzoic acid], for which the fold induction at 10 µM in test [1] was over 2.5. In test [2], the EC50 turned out to be 270 nM and the Emax was 92%.
Take `Cc1ccc(Oc2cnc(NC(=O)C(OC3CCOCC3)c3ccc(S(=O)(=O)C4CC4)cc3)s2)cc1C(=O)O` (single isomer, unassigned; (+)) [Example G10A, (+)5-[2-[[2-(4-cyclopropylsulfonylphenyl)-2-tetrahydropyran-4-yloxy-acetyl]amino]thiazol-5-yl]oxy-2-methyl-benzoic acid]: the fold induction at 10 µM in test [1] was over 2.5. Besides, in test [2], the EC50 came out at 230 nM and the maximum response (Emax) was 93%.
For `O=C(O)c1cc(Oc2cnc(NC(=O)C(OC3CCOCC3)c3ccc(S(=O)(=O)C4CC4)cc3)s2)ccc1F` (single isomer, unassigned; (+)) [Example G16A, (+)5-[2-[[2-(4-cyclopropylsulfonylphenyl)-2-tetrahydropyran-4-yloxy-acetyl]amino]thiazol-5-yl]oxy-2-fluoro-benzoic acid], in test [1], the fold induction at 10 µM was over 2.5. In addition, in test [2], the EC50 is 270 nM and the Emax is 93%.
Regarding `O=C(Nc1ncc(Oc2cccc(CO)c2)s1)C(OC1CCOCC1)c1ccc(S(=O)(=O)C2CC2)cc1` (single isomer, unassigned; (+)) [Example G20A, (+)2-(4-cyclopropylsulfonylphenyl)-N-[5-[3-(hydroxymethyl)phenoxy]thiazol-2-yl]-2-tetrahydro-pyran-4-yloxy-acetamide], in test [1], the fold induction at 10 µM was over 2.5. Moreover, in test [2], the EC50 was 64 nM and the Emax was found to be 93%.
For `O=C(O)c1cccc(Oc2cnc(NC(=O)C(O[C@@H]3CCOC3)c3ccc(S(=O)(=O)C4CC4)cc3)s2)c1` (single isomer, unassigned; (+)) [Example G21A], in test [1], the fold induction at 10 µM is over 2.5.
Consider `O=C(O)c1cccc(Oc2cnc(NC(=O)C(O[C@H]3CCOC3)c3ccc(S(=O)(=O)C4CC4)cc3)s2)c1` (single isomer, unassigned; (+)) [Example G25A], for which the fold induction at 10 µM in test [1] is over 2.5. For the same compound, in test [2], the EC50 was 200 nM and the Emax stood at 95%.
On to `O=C(O)c1cccc(Oc2cnc(NC(=O)C(OC3CCOCC3)c3ccc(S(=O)(=O)C4CCCC4)cc3)s2)c1` (single isomer, unassigned; (+)) [Example G26A, (+)-3-[2-[[2-(4-cyclopentylsulfonylphenyl)-2-tetrahydropyran-4-yloxy-acetyl]amino]thiazol-5-yl]oxybenzoic acid], for which the fold induction at 10 µM in test [1] was over 2.5. In test [2], the EC50 amounted to 180 nM and the Emax turned out to be 94%.
On to `O=C(O)c1cccc(Oc2cnc(NC(=O)C(OC3CCOCC3)c3ccc(S(=O)(=O)C4CCCC4)nc3)s2)c1` (single isomer, unassigned; (+)) [Example G27A, (+)-3-[2-[[2-(6-cyclopentylsulfonyl-3-pyridyl)-2-tetrahydropyran-4-yloxy-acetyl]amino]thiazol-5-yl]oxybenzoic acid], for which the fold induction at 10 µM in test [1] was over 2.5. In addition, in test [2], the concentration for a half-maximal effect (EC50) is 130 nM and the maximal response (Emax) is 95%.
On to `O=C(O)c1ccc(NC(=O)C(Oc2ccc(F)cc2F)c2ccc(S(=O)(=O)C3CC3)cc2)nc1` (single isomer, unassigned; (-)) [Example G15A, (−)6-[[2-(4-cyclopropylsulfonylphenyl)-2-(2,4-difluorophenoxy)acetyl]amino]pyridine-3-carboxylic acid], for which the fold induction at 10 µM in test [1] is over 2.5. Further, in test [2], the EC50 worked out at 480 nM and the Emax is 90%.
With `O=C(O)c1cc(Oc2cnc(NC(=O)C(OC3CCOCC3)c3ccc(S(=O)(=O)C4CC4)cc3)s2)ccn1` (stereo not drawn) [Example B-49, 4-[2-[[2-(4-cyclopropylsulfonylphenyl)-2-tetrahydropyran-4-yloxy-acetyl]amino]thiazol-5-yl]oxypyridine-2-carboxylic acid], in test [2], the EC50 is 570 nM and the Emax is 92%.
On to `O=C(O)c1ccc(NC(=O)C(Oc2ccc(Cl)cc2)c2ccc(S(=O)(=O)C3CC3)cc2)nc1` (stereo not drawn) [Example B-58, 6-[[2-(4-chlorophenoxy)-2-(4-cyclopropylsulfonylphenyl)acetyl]amino]pyridine-3-carboxylic acid], for which, in test [2], the EC50 came out at 740 nM and the Emax came to 89%.
As to `O=C(NC1CC1)c1ccc(Oc2cnc(NC(=O)C(OC3CCOCC3)c3ccc(S(=O)(=O)C4CC4)cc3)s2)cc1` (stereo not drawn) [Example C3, N-Cyclopropyl-4-[2-[[2-(4-cyclopropylsulfonylphenyl)-2-tetrahydropyran-4-yloxy-acetyl]amino]thiazol-5-yl]oxy-benzamide], in test [2], the EC50 amounted to 130 nM and the maximal effect (Emax) came to 94%.
`O=C(Nc1ncc(Oc2cccc(CO)c2)s1)C(OC1CCOCC1)c1ccc(S(=O)(=O)C2CC2)cc1` (stereo not drawn) [Example D3, 2-(4-cyclopropylsulfonylphenyl)-N-[5-[3-(hydroxymethyl)phenoxy]thiazol-2-yl]-2-tetrahydropyran-4-yloxy-acetamide]: in test [2], the EC50 was found to be 140 nM and the Emax worked out at 92%.
Take `O=C(Nc1nc2ccc(C(O)CO)nc2s1)C(OC1CCOCC1)c1ccc(S(=O)(=O)C2CC2)cc1` (stereo not drawn) [Example E2, 2-(4-Cyclopropanesulfonyl-phenyl)-N-[5-(1,2-dihydroxy-ethyl)-thiazolo[5,4-b]pyridin-2-yl]-2-(tetrahydro-pyran-4-yloxy)-acetamide]: in test [2], the EC50 was determined as 1500 nM and the Emax was 93%.
Turning to `O=C(Nc1ncc(C(O)CO)s1)C(Oc1ccc(F)cc1F)c1ccc(S(=O)(=O)C2CC2)cc1` (stereo not drawn) [Example E3, 2-(4-cyclopropylsulfonylphenyl)-2-(2,4-difluorophenoxy)-N-[5-(1,2-dihydroxyethyl)thiazol-2-yl]acetamide], in test [2], the EC50 is 1200 nM and the Emax was 88%.
